What was measured:
[1] = biological target: Rho-associated protein kinase 2 (Homo sapiens, UniProt O75116); experiment: Inhibition of ROCK2 (unknown origin) after 4 hrs by HTRF assay
[2] = Inhibition of PKA (unknown origin) after 70 mins by luminescence assay; set-up: species or system Homo sapiens
[3] = biological target: Rho-associated protein kinase 2 (Rattus norvegicus, UniProt Q62868); experiment: Inhibition of ROCK2-mediated myosin light chain bis-phosphorylation in rat A7r5 cells after 1 hr by TO-PRO-3 iodide staining-based assay; assay type: cell-based
Chain of Rho-associated protein kinase 2 (Rattus norvegicus, UniProt Q62868) (Q62868 whole entry): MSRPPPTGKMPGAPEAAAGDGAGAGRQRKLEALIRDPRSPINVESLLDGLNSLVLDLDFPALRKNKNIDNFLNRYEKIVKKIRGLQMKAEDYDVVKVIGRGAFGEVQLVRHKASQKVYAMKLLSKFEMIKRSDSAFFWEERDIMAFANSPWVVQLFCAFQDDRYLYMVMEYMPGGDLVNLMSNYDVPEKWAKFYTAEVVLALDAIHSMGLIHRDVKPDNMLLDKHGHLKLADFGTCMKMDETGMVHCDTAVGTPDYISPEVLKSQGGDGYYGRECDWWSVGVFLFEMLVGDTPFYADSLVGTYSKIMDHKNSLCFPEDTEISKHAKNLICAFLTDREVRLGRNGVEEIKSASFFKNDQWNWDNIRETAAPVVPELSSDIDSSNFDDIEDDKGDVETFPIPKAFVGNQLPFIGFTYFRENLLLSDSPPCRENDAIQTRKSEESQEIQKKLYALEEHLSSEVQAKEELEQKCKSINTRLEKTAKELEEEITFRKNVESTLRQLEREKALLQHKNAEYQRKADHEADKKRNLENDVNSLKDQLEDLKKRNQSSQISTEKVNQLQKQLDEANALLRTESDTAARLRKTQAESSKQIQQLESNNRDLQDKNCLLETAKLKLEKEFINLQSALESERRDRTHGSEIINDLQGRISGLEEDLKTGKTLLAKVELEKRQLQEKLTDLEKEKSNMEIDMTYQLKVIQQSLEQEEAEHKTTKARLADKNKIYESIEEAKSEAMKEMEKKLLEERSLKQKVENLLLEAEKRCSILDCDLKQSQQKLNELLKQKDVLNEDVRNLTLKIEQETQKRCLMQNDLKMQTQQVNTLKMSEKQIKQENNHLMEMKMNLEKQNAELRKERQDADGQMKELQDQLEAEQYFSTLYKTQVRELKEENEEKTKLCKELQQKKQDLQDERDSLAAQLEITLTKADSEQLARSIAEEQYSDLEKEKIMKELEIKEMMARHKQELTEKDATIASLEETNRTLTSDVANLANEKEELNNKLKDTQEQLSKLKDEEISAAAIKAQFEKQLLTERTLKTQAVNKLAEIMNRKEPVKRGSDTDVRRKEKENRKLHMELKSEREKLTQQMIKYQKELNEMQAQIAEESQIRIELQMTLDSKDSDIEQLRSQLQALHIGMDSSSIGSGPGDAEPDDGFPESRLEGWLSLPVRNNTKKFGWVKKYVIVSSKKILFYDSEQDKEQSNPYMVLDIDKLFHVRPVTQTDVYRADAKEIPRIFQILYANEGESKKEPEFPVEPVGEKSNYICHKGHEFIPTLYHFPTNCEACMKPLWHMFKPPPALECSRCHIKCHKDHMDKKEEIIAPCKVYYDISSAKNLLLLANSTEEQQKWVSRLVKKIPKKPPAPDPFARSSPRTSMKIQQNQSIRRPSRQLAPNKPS

[4] = biological target: Serine/threonine-protein kinase MRCK alpha (Homo sapiens, UniProt Q5VT25); experiment: Inhibition of MRCK-alpha (unknown origin) using LCB-AKRRRLSSLRA-NH2 as substrate after 75 mins by luminescence assay
Chain of Serine/threonine-protein kinase MRCK alpha (Q5VT25 whole entry): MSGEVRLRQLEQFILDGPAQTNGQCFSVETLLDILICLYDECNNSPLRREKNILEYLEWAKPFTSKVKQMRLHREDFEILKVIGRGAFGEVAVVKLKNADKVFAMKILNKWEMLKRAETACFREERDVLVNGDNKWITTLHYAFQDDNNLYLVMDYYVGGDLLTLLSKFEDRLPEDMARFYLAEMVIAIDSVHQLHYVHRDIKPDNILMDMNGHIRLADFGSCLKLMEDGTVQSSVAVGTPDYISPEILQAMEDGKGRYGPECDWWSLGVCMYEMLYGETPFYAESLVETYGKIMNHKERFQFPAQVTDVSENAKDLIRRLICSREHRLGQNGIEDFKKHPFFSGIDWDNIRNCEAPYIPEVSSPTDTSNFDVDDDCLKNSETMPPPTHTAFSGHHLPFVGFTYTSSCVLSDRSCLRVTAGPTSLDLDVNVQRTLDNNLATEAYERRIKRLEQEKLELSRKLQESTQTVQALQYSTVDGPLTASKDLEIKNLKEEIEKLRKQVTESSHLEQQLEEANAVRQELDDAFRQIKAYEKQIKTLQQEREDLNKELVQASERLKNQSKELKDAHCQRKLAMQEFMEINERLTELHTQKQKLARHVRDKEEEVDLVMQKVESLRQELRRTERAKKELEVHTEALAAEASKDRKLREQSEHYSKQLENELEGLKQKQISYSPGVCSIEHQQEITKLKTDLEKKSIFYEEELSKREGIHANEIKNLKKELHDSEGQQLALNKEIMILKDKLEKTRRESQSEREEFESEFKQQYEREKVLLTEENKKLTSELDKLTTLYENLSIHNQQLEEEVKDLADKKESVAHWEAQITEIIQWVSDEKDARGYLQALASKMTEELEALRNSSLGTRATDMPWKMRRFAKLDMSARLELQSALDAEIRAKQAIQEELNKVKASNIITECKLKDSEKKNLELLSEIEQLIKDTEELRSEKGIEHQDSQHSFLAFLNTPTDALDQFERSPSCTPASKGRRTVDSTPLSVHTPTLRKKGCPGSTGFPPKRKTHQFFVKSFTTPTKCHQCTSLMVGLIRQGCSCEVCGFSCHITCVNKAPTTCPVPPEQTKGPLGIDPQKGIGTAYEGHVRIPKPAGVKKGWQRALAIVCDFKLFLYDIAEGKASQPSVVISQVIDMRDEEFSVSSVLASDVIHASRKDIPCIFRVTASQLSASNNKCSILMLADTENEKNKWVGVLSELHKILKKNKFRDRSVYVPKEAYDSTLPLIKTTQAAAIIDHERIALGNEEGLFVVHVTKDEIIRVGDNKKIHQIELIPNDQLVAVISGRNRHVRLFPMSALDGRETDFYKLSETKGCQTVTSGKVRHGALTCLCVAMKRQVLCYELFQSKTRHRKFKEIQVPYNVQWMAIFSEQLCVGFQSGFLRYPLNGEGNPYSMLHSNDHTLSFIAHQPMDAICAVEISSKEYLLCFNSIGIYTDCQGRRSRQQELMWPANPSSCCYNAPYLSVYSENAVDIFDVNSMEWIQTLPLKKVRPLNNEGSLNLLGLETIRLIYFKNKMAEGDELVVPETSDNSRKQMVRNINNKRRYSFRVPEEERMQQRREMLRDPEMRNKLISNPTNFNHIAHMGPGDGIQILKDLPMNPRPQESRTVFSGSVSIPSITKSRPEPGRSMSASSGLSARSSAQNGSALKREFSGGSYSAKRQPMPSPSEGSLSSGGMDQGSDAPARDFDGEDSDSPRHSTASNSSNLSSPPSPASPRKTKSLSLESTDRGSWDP

Homo sapiens [5] = organism: Homo sapiens; experiment: Selectivity ratio of IC50 for MRCK-alpha (unknown origin) to IC50 for ROCK2 (unknown origin)
Homo sapiens [6] = organism: Homo sapiens; experiment: Selectivity ratio of IC50 for PKA (unknown origin) to IC50 for ROCK2 (unknown origin)

Chain of Rho-associated protein kinase 2 (Homo sapiens, UniProt O75116) (O75116 whole entry): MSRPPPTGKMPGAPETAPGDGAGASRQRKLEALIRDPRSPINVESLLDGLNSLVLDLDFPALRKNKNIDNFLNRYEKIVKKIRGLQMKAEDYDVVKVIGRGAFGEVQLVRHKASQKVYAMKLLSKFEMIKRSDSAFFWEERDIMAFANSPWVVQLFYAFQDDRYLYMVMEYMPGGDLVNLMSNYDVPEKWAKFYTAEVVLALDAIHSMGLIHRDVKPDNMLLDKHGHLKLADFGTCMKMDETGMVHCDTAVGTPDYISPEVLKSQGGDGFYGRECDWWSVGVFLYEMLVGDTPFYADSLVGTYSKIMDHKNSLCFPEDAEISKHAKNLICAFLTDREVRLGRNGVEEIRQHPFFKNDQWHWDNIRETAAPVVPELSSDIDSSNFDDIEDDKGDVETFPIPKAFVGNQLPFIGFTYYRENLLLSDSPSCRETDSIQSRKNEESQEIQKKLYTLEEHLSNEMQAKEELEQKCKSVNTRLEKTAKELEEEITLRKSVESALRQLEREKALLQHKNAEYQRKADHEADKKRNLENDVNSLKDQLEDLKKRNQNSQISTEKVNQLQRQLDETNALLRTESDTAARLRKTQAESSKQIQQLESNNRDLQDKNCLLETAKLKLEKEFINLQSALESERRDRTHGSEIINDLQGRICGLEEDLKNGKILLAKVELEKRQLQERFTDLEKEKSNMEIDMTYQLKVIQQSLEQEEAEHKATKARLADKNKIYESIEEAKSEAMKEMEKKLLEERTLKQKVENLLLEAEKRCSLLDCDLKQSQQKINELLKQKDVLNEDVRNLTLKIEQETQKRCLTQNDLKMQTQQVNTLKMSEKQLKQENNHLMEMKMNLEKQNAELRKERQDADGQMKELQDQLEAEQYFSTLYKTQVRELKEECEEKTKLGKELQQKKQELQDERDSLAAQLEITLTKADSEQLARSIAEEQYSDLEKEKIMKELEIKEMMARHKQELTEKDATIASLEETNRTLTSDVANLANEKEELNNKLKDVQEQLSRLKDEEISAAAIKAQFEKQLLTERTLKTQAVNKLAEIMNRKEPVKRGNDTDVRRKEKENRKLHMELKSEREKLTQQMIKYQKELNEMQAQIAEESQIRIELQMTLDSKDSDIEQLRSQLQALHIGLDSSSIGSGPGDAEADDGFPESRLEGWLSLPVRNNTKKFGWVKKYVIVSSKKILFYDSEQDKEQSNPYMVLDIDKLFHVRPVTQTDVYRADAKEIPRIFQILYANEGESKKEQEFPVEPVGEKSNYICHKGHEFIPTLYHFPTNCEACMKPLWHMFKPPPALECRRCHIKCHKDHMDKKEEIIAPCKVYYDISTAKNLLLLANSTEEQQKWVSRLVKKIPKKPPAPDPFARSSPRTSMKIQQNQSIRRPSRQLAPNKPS

SMILES | IC50 [1] [µM] | IC50 [2] [µM] | IC50 [3] [µM] | IC50 [4] [µM] | Ratio IC50 (Homo sapiens [5]) | Ratio IC50 (Homo sapiens [6])
COc1ccc2c(c1)C[C@@H](C(=O)Nc1ccc(-c3cn[nH]c3)cc1O[C@@H]1CCN(C)C1)CO2 | 0.014 | > 20 | 0.032 | > 20 |  | 
COc1ccc2c(c1)C[C@@H](C(=O)Nc1ccc(-c3cn[nH]c3)cc1OCCN(C)C)CO2 |  | > 20 | 0.043 |  |  | 
COc1ccc2c(c1)C[C@H](C(=O)Nc1ccc(-c3cn[nH]c3)cc1OCCN(C)C)CO2 |  | 1.74 | < 0.004 |  |  | 
COc1ccc2c(c1)C[C@H](C(=O)Nc1ccc(-c3cn[nH]c3)cc1O[C@@H]1CCN(C)C1)CO2 | < 0.001 | 3.46 | < 0.004 | 0.261 |  | 
COc1ccc2c(c1)C[C@@H](C(=O)Nc1ccc(-c3cn[nH]c3)cc1O[C@H]1CCN(C)C1)CO2 | 0.034 | > 20 | 0.9 |  |  | 
COc1ccc2c(c1)C[C@H](C(=O)Nc1ccc(-c3cn[nH]c3)cc1OCCN1CCCC1)CO2 | < 0.001 | 9.6 | < 0.004 | 1.27 | > 1200 | > 9500
COc1ccc2c(c1)C[C@@H](C(=O)Nc1ccc(-c3cn[nH]c3)cc1OCCN1CCCC1)CO2 | 0.03 | > 20 | 0.411 | > 20 |  | 
COc1ccc2c(c1)C[C@H](C(=O)Nc1ccc(-c3cn[nH]c3)cc1O[C@H]1CCN(C)C1)CO2 | < 0.001 | 7.38 | < 0.004 | 0.294 |  | 
COc1ccc2c(c1)C[C@@H](C(=O)Nc1ccc(-c3cn[nH]c3)cc1OCCCO)CO2 | 0.035 | > 20 | 0.519 |  |  | 
COc1ccc2c(c1)C[C@H](C(=O)Nc1ccc(-c3cn[nH]c3)cc1OCCCO)CO2 | < 0.001 | 0.652 | < 0.004 | 0.074 |  | 

Reference: ChEMBL document CHEMBL3217726, “Asymmetric synthesis of potent chroman-based Rho kinase (ROCK-II) inhibitors” (Medchemcomm, 2011)
